The results in this text go back to patent US20230022157A1 (Achillion Pharmaceuticals, Inc., priority 2018, published 2023).

pIC50: −log10 of the molar value.

A word on the pIC50: it is −log10 of the IC50, conventionally taken in molar units.

The target in the first assay is T1, Human Factor D (Homo sapiens, UniProt P00746).
T1 construct: purified from human serum; purchased Complement Technology, Inc; host or cells: human serum (natural protein, not recombinant)
T1 sequence (P00746 26-253): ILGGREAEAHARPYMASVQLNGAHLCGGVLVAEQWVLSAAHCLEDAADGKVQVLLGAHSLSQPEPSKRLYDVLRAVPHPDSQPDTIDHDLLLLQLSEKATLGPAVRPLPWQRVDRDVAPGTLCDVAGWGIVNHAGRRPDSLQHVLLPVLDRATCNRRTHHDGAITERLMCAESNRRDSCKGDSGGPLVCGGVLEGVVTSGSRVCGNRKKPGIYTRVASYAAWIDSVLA
Briefly: Human Factor D Assay. In kind it is biochemical. Particulars: Human Factor D 80 nM, substrate Z-L-Lys-SBzl, assay of Example 3; read-out: IC50 (Stars). The gist of the method: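 Serum-purified human factor D (80 nM final) preincubated 5 min at room temperature with test compound in 50 mM Tris, 1M NaCl, pH 7.5. Z-L-Lys-SBzl substrate and DTNB then added, each at 100 μM final. IC50 from nonlinear regression of reaction rate against compound concentration.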
As for `CC(=O)c1nn(CC(=O)N2[C@H](C(=O)N[C@@H](C)CC(C)C)C[C@@]3(C)C[C@@H]23)c2ccc(-c3cnc(C)nc3)cc12` [Compound 10, (1R,3S,5R)-2-(2-(3-Acetyl-5-(2-methylpyrimidin-5-yl)-1H-indazol-1-yl)acetyl)-5-methyl-N—((S)-4-methylpentan-2-yl)-2-azabicyclo[3.1.0]hexane-3-carboxamide], the pIC50 is greater than 6.00.
Consider `CC(=O)c1nn(CC(=O)N2[C@H](C(=O)NCCc3cccnc3)C[C@@]3(C)C[C@@H]23)c2c(C)cc(-c3cnc(C)nc3)cc12` [Compound 7, (1R,3S,5R)-2-(2-(3-Acetyl-7-methyl-5-(2-methylpyrimidin-5-yl)-1H-indazol-1-yl)acetyl)-5-methyl-N-(2-(pyridin-3-yl)ethyl)-2-azabicyclo[3.1.0]hexane-3-carboxamide], for which the pIC50 is greater than 6.00.

The same assay, now with this note: Human Factor D 80 nM, substrate Z-L-Lys-SBzl; Table 2; read-out: IC50 (Stars).
Turning to `CC(=O)c1nn(CC(=O)N2C[C@H]3C[C@H]3[C@H]2C(=O)Nc2nc(Br)c(F)cc2C)c2c(C)cc(-c3cnc(CO)nc3)cc12` [Compound 76, (1R,2S,5S)-3-(2-(3-acetyl-5-(2-(hydroxymethyl)pyrimidin-5-yl)-7-methyl-11H-indazol-1-yl)acetyl)-N-(6-bromo-5-fluoro-3-methylpyridin-2-yl)-3-azabicyclo[3.1.0]hexane-2-carboxamide], the pIC50 was greater than 6.00.
The same measure, in the same setting: for `CC(=O)c1nn(CC(=O)N2[C@H](C(=O)NCc3ccc4c(c3)CCCC4)C[C@@]3(C)C[C@@H]23)c2c(C)cc(-c3cnc(C)nc3)cc12` [Compound 150, (1R,3S,5R)-2-{2-[3-acetyl-7-methyl-5-(2-methylpyrimidin-5-yl)indazol-1-yl]acetyl}-5-methyl-N-(5,6,7,8-tetrahydronaphthalen-2-ylmethyl)-2-azabicyclo[3.1.0]hexane-3-carboxamide] the value was greater than 6.00.
For `CC(=O)c1cn(CC(=O)N2[C@H](C(=O)Nc3cc(C)cc(Br)n3)C[C@@]3(C)C[C@@H]23)c2c(C)cc(-c3cnc(C)nc3)cc12` [Compound 193, (1R,3S,5R)-2-(2-(3-acetyl-7-methyl-5-(2-methylpyrimidin-5-yl)-1H-indol-1-yl)acetyl)-N-(6-bromo-4-methylpyridin-2-yl)-5-methyl-2-azabicyclo[3.1.0]hexane-3-carboxamide], the pIC50 is greater than 6.00.
As to `CC(=O)c1cn(CC(=O)N2[C@H]3CC[C@H](C3)[C@H]2C(=O)Nc2nc(C(F)(F)F)ccc2C)c2c(C)cc(-c3cnc(C)nc3)cc12` [Compound 177, (1S,3S,4R)-2-(2-(3-acetyl-7-methyl-5-(2-methylpyrimidin-5-yl)-1H-indol-1-yl)acetyl)-N-(3-methyl-6-(trifluoromethyl)pyridin-2-yl)-2-azabicyclo[2.2.1]heptane-3-carboxamide], the negative-log IC50 (pIC50) was greater than 6.00.
For the compound `CC(=O)c1cn(CC(=O)N2[C@H](C(=O)Nc3nc(Br)c(F)cc3C)C[C@@]3(C)C[C@@H]23)c2c(C)cc(-c3cnc(CO)nc3)cc12` [Compound 78, (1R,3S,5R)-2-(2-(3-acetyl-5-(2-(hydroxymethyl)pyrimidin-5-yl)-7-methyl-1H-indol-1-yl)acetyl)-N-(6-bromo-5-fluoro-3-methylpyridin-2-yl)-5-methyl-2-azabicyclo[3.1.0]hexane-3-carboxamide], the pIC50 is greater than 6.00.
For `CC(=O)c1nn(CC(=O)N2[C@H](C(=O)NC(C)CC3CCC3)C[C@@]3(C)C[C@@H]23)c2c(C)cc(-c3cnc(C)nc3)cc12` (stereo partly shown) [Compound 134], the pIC50 is greater than 6.00.
`CC(=O)c1nn(CC(=O)N2[C@H](C(=O)Nc3nc(Br)ccc3C)C[C@@]3(C)C[C@@H]23)c2ccc(-c3cnc(C(=O)O)nc3)cc12` [Compound 47, 5-(3-acetyl-1-(2-((1R,3S,5R)-3-((6-bromo-3-methylpyridin-2-yl)carbamoyl)-5-methyl-2-azabicyclo[3.1.0]hexan-2-yl)-2-oxoethyl)-1H-indazol-5-yl)pyrimidine-2-carboxylic acid]: the pIC50 was greater than 6.00.
Consider `CC(=O)c1nn(CC(=O)N2[C@H](C(=O)NC(C)Cc3ccco3)C[C@@]3(C)C[C@@H]23)c2c(C)cc(-c3cnc(C)nc3)cc12` (stereo partly drawn) [Compound 180, (1R,3S,5R)-2-{2-[3-acetyl-7-methyl-5-(2-methylpyrimidin-5-yl)indazol-1-yl]acetyl}-N-[1-(furan-2-yl)propan-2-yl]-5-methyl-2-azabicyclo[3.1.0]hexane-3-carboxamide], for which the pIC50 is greater than 6.00.
For the compound `CC(=O)c1cn(CC(=O)N2[C@H](C(=O)Nc3nc(Br)ccc3C)C[C@@]3(C)C[C@@H]23)c2c(C)cc(-c3cnc(C(C)O)nc3)cc12` (stereo partly drawn) [Compound 157, (1R,3S,5R)-2-(2-(3-acetyl-5-(2-(1-hydroxyethyl)pyrimidin-5-yl)-7-methyl-1H-indol-1-yl)acetyl)-N-(6-bromo-3-methylpyridin-2-yl)-5-methyl-2-azabicyclo[3.1.0]hexane-3-carboxamide], the pIC50 is greater than 6.00.
Consider `COc1cc(Br)nc(NC(=O)[C@@H]2[C@@H]3C[C@@H]3CN2C(=O)Cn2nc(C(C)=O)c3cc(-c4cnc(CO)nc4)cc(C)c32)c1` [Compound 73, (1R,2S,5S)-3-(2-(3-acetyl-5-(2-(hydroxymethyl)pyrimidin-5-yl)-7-methyl-11H-indazol-1-yl)acetyl)-N-(6-bromo-4-methoxypyridin-2-yl)-3-azabicyclo[3.1.0]hexane-2-carboxamide], for which the pIC50 is greater than 6.00.
As to `CC(=O)c1nn(CC(=O)N2[C@H](C(=O)Nc3ccc(F)c(Br)n3)C[C@@]3(C)C[C@@H]23)c2c(C)cc(-c3cnc(CO)nc3)cc12` [Compound 120, (1R,3S,5R)-2-(2-(3-acetyl-5-(2-(hydroxymethyl)pyrimidin-5-yl)-7-methyl-1H-indazol-1-yl)acetyl)-N-(6-bromo-5-fluoropyridin-2-yl)-5-methyl-2-azabicyclo[3.1.0]hexane-3-carboxamide], the pIC50 was greater than 6.00.
On to `Cc1ncc(-c2cc3c(C(N)=O)nn(CC(=O)N4C[C@H]5C[C@H]5[C@H]4C(=O)Nc4nc(Br)c(F)cc4C)c3c(C)n2)cn1` [Compound 111, 1-{2-[2-(6-Bromo-5-fluoro-3-methyl-pyridin-2-ylcarbamoyl)-3-aza-bicyclo[3.1.0]hex-3-yl]-2-oxo-ethyl}-7-methyl-5-(2-methyl-pyrimidin-5-yl)-1H-pyrazolo[3,4-c]pyridine-3-carboxylic acid amide], for which the pIC50 is greater than 6.00.
As to `CC(=O)c1nn(CC(=O)N2[C@H](C(=O)NCCC3CC3)C[C@@]3(C)C[C@@H]23)c2c(C)cc(-c3cnc(C)nc3)cc12` [Compound 105, (1R,3S,5R)-2-{2-[3-acetyl-7-methyl-5-(2-methylpyrimidin-5-yl)indazol-1-yl]acetyl}-N-(2-cyclopropylethyl)-5-methyl-2-azabicyclo[3.1.0]hexane-3-carboxamide], the pIC50 is greater than 6.00.
For the compound `CC(=O)c1nn(CC(=O)N2[C@H](C(=O)Nc3nc(C(F)(F)F)ccc3C)C[C@@]3(C)C[C@@H]23)c2c(C)cc(-c3cnc(C(=O)O)nc3)cc12` [Compound 51, 5-(3-acetyl-7-methyl-1-(2-((1R,3S,5R)-5-methyl-3-((3-methyl-6-(trifluoromethyl)pyridin-2-yl)carbamoyl)-2-azabicyclo[3.1.0]hexan-2-yl)-2-oxoethyl)-1H-indazol-5-yl)pyrimidine-2-carboxylic acid], the pIC50 was greater than 6.00.
As to `CC(=O)c1nn(CC(=O)N2[C@H](C(=O)NCCn3cccn3)C[C@@]3(C)C[C@@H]23)c2c(C)cc(-c3cnc(C)nc3)cc12` [Compound 102, (1R,3S,5R)-2-{2-[3-acetyl-7-methyl-5-(2-methylpyrimidin-5-yl)indazol-1-yl]acetyl}-5-methyl-N-[2-(pyrazol-1-yl)ethyl]-2-azabicyclo[3.1.0]hexane-3-carboxamide], the pIC50 was greater than 6.00.
Turning to `CC(=O)c1nn(CCN2C[C@H](F)C[C@H]2C(=O)Nc2cccc(Br)n2)c2ccc(-c3cnc(C)nc3)cc12` [Compound 139, (2S,4R)-1-(2-(3-acetyl-5-(2-methylpyrimidin-5-yl)-1H-indazol-1-yl)ethyl)-N-(6-bromopyridin-2-yl)-4-fluoropyrrolidine-2-carboxamide], the pIC50 was less than 5.00.
The same measure, in the same setting: next, `CC(=O)c1cn(CC(=O)N2[C@H](C(=O)Nc3nc(Br)c(F)cc3C)C[C@@]3(C)C[C@@H]23)c2c(C)cc(-c3cnc(CF)nc3)cc12` [Compound 217, (1R,3S,5R)-2-(2-(3-acetyl-5-(2-(fluoromethyl)pyrimidin-5-yl)-7-methyl-1H-indol-1-yl)acetyl)-N-(6-bromo-5-fluoro-3-methylpyridin-2-yl)-5-methyl-2-azabicyclo[3.1.0]hexane-3-carboxamide]: greater than 6.00.
In the case of `CC(=O)c1nn(CC(=O)N2[C@H](C(=O)Nc3nc(Br)ccc3C)C[C@@]3(C)C[C@@H]23)c2ccc(-c3cnc(C(C)O)nc3)cc12` (stereo partly drawn) [Compound 126, (1R,3S,5R)-2-(2-(3-acetyl-5-(2-(1-hydroxyethyl)pyrimidin-5-yl)-1H-indazol-1-yl)acetyl)-N-(6-bromo-3-methylpyridin-2-yl)-5-methyl-2-azabicyclo[3.1.0]hexane-3-carboxamide], the pIC50 is greater than 6.00.
Turning to `CC(=O)c1nn(CC(=S)N2C[C@H](F)C[C@H]2C(=O)Nc2cccc(Br)n2)c2ccc(-c3cnc(C)nc3)cc12` [Compound 110, 1-{2-[3-Acetyl-5-(2-methyl-pyrimidin-5-yl)-indazol-1-yl]-thioacetyl}-4-fluoro-pyrrolidine-2-carboxylic acid (6-bromo-pyridin-2-yl)-amide], the pIC50 is 5.00 to 6.00.
Turning to `CC(=O)c1nn(CC(=O)N2C[C@H]3C[C@H]3[C@H]2C(=O)Nc2cncc(Br)n2)c2c(C)cc(-c3cnc(CO)nc3)cc12` [Compound 74, (1R,2S,5S)-3-(2-(3-acetyl-5-(2-(hydroxymethyl)pyrimidin-5-yl)-7-methyl-11H-indazol-1-yl)acetyl)-N-(6-bromopyrazin-2-yl)-3-azabicyclo[3.1.0]hexane-2-carboxamide], the negative logarithm of the IC50 (pIC50) is greater than 6.00.
